Here are results for eleven compounds from patent publication US6168934A, “Oligosaccharide enzyme substrates and inhibitors: methods and compositions” (The Scripps Research Institute, priority 1998, dated 2001).

Data set [1] addresses T1, fucosyl α1,3/1,4 transferase (FucT; EC 2.4.1.65), recombinant (Homo sapiens, UniProt P21217).
T1 construct: gift of Dr. J. B. Lowe, University of Michigan
T1 sequence (P21217 1-361): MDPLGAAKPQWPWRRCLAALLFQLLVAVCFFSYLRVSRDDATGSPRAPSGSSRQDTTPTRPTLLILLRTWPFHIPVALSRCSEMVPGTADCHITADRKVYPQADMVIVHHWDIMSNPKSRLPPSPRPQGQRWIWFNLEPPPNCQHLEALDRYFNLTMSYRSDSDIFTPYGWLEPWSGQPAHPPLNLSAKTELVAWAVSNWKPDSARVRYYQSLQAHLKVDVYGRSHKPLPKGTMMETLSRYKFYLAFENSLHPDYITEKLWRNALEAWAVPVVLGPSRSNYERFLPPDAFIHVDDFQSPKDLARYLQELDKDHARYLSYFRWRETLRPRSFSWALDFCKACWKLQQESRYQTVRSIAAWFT
Put plainly: Fucosyltransferase inhibition studies (IC50). Type of data set: biochemical. The settings on record: 2 mM N-acetyllactosamine; for inhibitory effect: up to concentrations of 50 mg/mL. As for the experimental part:
For other studies, such as those using a recombinant fucosylα1,3/4transferase (EC 2.4.1.65) whose results are shown in Table 1a, a stock mixture containing 0.25 mM ^14 C-GDP-fucose (5000 cpm/μL), 6.25 mM ATP, 25 mM MnCl2 are 62.5 mM cacodylate buffer, pH 6.2, was admixed fresh on the day of use, and stored on ice. To that solution, Fuc T was added immediately before use, and the reaction was initiated by the combination of 16 μL of that mixture with 4 μL of 100 mM acceptor substrate. The resulting admixture was then incubated at 37° C. for 30-240 minutes, depending upon the acceptor substrate (reactant compound) under study.
In this equation, m=slope and b=y-intercept.
Percent inhibition=m([inhibitor])+b equation 2

Data set [2] addresses β-galactosidase (EC 3.2.1.23 from E. coli) (Escherichia coli, UniProt P00722). Briefly: Inhibition of β-galactosidase hydrolysis of p-nitrophenyl β-galactoside. Format: biochemical. The following applies: p-nitrophenyl β-galactoside hydrolysed at the same rate with and without azasugar; concentration not given. From the text:
Not all of the monosaccharide acceptors of the present invention are suitable substrates for β-galactosidase. For example, when Compound 3 or 4 from Table 2 are used as a substrate, no product was obtained.

The target in data set [3] is α-Glucosidase (Brewer's Yeast). Put plainly: Glycosidase inhibition, α-glucosidase (BY). The settings on record: p-nitrophenyl α-D-glucoside, PIPES-NaOAc buffer pH 6.5. Type of data set: biochemical. From the text: (§1) Materials: All of the buffers, enzymes, and substrates were purchased from Sigma and used as received. These included piperazine-N,N'-bis (2-ethanesulfonic acid) (PIPES), sodium acetate (NaOAc), ethylenediaminetetraacetic acid (EDTA), β-D-glucosidase (from sweet almond), p-nitrophenyl β-D-glucoside, p-nitrophenyl α-D-glucosidase, p-nitrophenyl α-D-glucoside, β-N-acetyl-D-glucosaminedase, p-nitrophenyl β-N-acetyl-D-glucosaminide, α-D-mannosidase and p-nitrophenyl α-D-mannoside.
(§2) (b) PIPES-NaOAc buffer (0.01 M PIPES, 0.2 M NaOAc and 0.01 mM EDTA, pH 6.5). This buffer was prepared according to the literature procedure [Dale et al., Biochemistry, 24:3530 (1985)].
(d) α-D-Glucosidase: 1.5 mg of solid protein (70 units/mg) were dissolved in 1 mL PIPES-NaOAc buffer solution and used for assays without further dilution.
(§3) (g) Substrate solutions: all substrates were dissolved in the corresponding buffer solution for enzymatic assay.
(§4) For each inhibitor, five inhibitor concentrations, ranging from zero to three times Ki, were generally used to determine the Ki value. […] The amount of enzyme added in each assay was adjusted so that less than 10 percent of the substrate, with its lowest substrate concentration, would be consumed within 45 seconds. Since all of the substrates have p-nitrophenol as leaving group, the assays were monitored at 400 nanometers (nm), where the molecular extinction coefficient, ε, was calibrated to be 3204.5 M^-1 cm^-1 at pH 6.5. The following illustrates the detailed procedure.
To a 1 mL disposable cuvette were added 950 microliters (μL) of the NaOAc-PIPES buffer solution, 20 μL of the inhibitor solution and 20 μL of the p-nitrophenyl β-D-glucoside solution (100 mM in PIPES-NaOAc buffer, pH 6.5). The solution was well mixed and 20 μL of the β-D-glucosidase solution were injected into the cuvette to start the reaction. The reaction was monitored at 400 nm on a Beckman DU-70 photospectrometer for 45 seconds and the initial hydrolysis rate was calculated. The same procedure was repeated with five other substrate concentrations. […]

The target in data set [4] is β-Glucosidase (Sweet Almond). Put plainly: Glycosidase inhibition, β-glucosidase (SA). The following applies: p-nitrophenyl β-D-glucoside, PIPES-NaOAc buffer pH 6.5. Type of data set: biochemical.
Source text: as §1, §2
(c) β-D-Glucosidase: The stock enzyme solution was prepared by dissolving 15 mg of solid protein (4 units/mg) in 1 mL PIPES-NaOAc buffer solution. This stock enzyme solution was diluted 5-fold for the enzymatic assay.
as §3, §4
To a 1 mL disposable cuvette were added 950 microliters (μL) of the NaOAc-PIPES buffer solution, 20 μL of the inhibitor solution and 20 μL of the p-nitrophenyl β-D-glucoside solution (100 mM in PIPES-NaOAc buffer, pH 6.5). The solution was well mixed and 20 μL of the β-D-glucosidase solution were injected into the cuvette to start the reaction. The reaction was monitored at 400 nm on a Beckman DU-70 photospectrometer for 45 seconds and the initial hydrolysis rate was calculated. […]

Data set [5] addresses E. coli CMP-sialic acid synthetase (CMP-NeuAc synthetase, EC 2.7.7.43), native enzyme (Escherichia coli O18:K1:H7, UniProt P13266). Briefly: Kinetic studies of native CMP-NeuAc synthetase. The settings on record: pH 9.0, 37° C.
Method: (§9) The activity of the native or the modified CMP-NeuAc synthetase was assayed using a thiobarbituric acid method described by Vann et al., J. Biol. Chem., 262:17556 (1987). […] After the mixture was incubated at 37° C. for 30 minutes, 50 mL of 1.6 M NaBH4 was added to destroy excess NeuAc, and the mixture was heated at room temperature for an additional 15 minutes. The mixture was then put in the ice bath and 50 mL of H3 PO4 were added to destroy NaBH4.
(§10) The resulting mixture was kept at zero degrees C for five minutes then incubated at 37° C. for 10 minutes to cleave the phosphoester bond of the formed CMP-NeuAc. The free NeuAc was oxidized with 50 mL of 0.2 M NaIO4 at room temperature for 10 minutes, and 400 mL of 4 percent NaAsO2 in 0.5 N HCl were added. […] After the solution was cooled, 1 mL of the solution was taken out and mixed with 1 mL of cyclohexanone. That mixture was shaken and centrifuged, and the upper layer was taken for measurement at 549 nm (e=4.11 mM^-1 cm^-1).
(§11) where A is [CTP], B is [NeuAc], Ka and Kb are the Michaelis constants for CTP and NeuAc, respectively, and Kia is the dissociation constant (or inhibition constant) for CTP.
Data set [6] has as its system CC(=O)N[C@H]1[C@H]([C@H](O)[C@H](O)CO)OC(O)(C(=O)O)C[C@@H]1O. Put plainly: Kinetic studies of modified (tagged) CMP-NeuAc synthetase. Type of data set: biochemical, E. coli. The settings on record: other: pH 9.0, 37° C. As for the experimental part:
(§5) The construction of plasmid CMPSIL-1, which contains the modified CMP-NeuAc synthetase gene (Example 2), was accomplished by the method of Ichikawa et al., J. Am. Chem. Soc., 113:4698 (1991). The CMP-NeuAc synthetase gene was fused with the decapeptide tag sequence Tyr-Pre-[…](SEQ ID NO:3) at the C-terminus, cloned into a lambda ZAP™ vector at EcoRI and XbaI sites and overexpressed in E. coli Sure strain.
(§6) The activity of the native or the modified CMP-NeuAc synthetase was assayed using a thiobarbituric acid method described by Vann et al., J. Biol. Chem., 262:17556 (1987). Briefly, the enzyme was added to a […] buffer containing 5.5 mM CTP, 2.8 mM N-acetylneuraminic acid, 0.2 M Tris, 20 mM MgCl2 and 0.2 mM DTT, pH 9.0, to form a mixture. After the mixture was incubated at 37° C. for 30 minutes, 50 mL of 1.6 M NaBH4 was added to destroy excess NeuAc, and the mixture was heated at room temperature for an additional 15 minutes. The mixture was then put in the ice bath and 50 mL of H3 PO4 were added to destroy NaBH4.
(§7) The resulting mixture was kept at zero degrees C for five minutes then incubated at 37° C. for 10 minutes to cleave the phosphoester bond of the formed CMP-NeuAc. The free NeuAc was oxidized with 50 mL of 0.2 M NaIO4 at room temperature for 10 minutes, and 400 mL of 4 percent NaAsO2 in 0.5 N HCl were added. The solution mixture was the transferred to a test tube containing 1 mL of 0.6 percent thiobarbituric acid in 0.5 M Na2 SO4, and heated in boiled water for 15 minutes. After the solution was cooled, 1 mL of the solution was taken out and mixed with 1 mL of cyclohexanone. That mixture was shaken and centrifuged, and the upper layer was taken for measurement at 549 nm (e=4.11 mM^-1 cm^-1).
(§8) Initial velocities were measured at various concentrations of CTP (1.25-5 mM) and NeuAc (2-8 mM) for kinetic studies. The data were fitted into the sequential bi-bi substrate rate equation 3, shown below, to derive the Michaelis constants and maximum velocity (V) using a Sigma plot program from Sigma Co. [formula] […]

Data set [7] has as its system Nc1ccn([C@@H]2O[C@H](COP(=O)(O)OP(=O)(O)OP(=O)(O)O)[C@@H](O)[C@H]2O)c(=O)n1. The description is as above. Format: biochemical, E. coli. The settings on record: other: pH 9.0, 37° C. As to the method:
as §5, §6, §7, §8

For data set [8] the test system is unchanged. Briefly: purified protein, by the assay type. The settings on record: other: pH 9.0, 37° C.
Method: as §9, §10, §11

E. coli CMP-sialic acid synthetase (CMP-NeuAc synthetase, EC 2.7.7.43), native enzyme, sequence (P13266 whole entry): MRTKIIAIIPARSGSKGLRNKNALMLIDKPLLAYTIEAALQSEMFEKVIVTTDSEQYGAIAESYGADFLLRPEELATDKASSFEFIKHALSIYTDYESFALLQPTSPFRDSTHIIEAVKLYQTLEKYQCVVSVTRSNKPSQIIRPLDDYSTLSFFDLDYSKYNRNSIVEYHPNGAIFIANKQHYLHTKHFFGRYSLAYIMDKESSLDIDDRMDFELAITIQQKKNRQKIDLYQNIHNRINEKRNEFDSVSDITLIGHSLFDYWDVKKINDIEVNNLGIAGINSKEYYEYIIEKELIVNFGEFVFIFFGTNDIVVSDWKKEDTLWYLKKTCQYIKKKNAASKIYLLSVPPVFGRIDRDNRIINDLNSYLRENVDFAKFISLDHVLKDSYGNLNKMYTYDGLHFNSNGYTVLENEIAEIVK
β-galactosidase (EC 3.2.1.23 from E. coli), sequence (P00722 2-1024): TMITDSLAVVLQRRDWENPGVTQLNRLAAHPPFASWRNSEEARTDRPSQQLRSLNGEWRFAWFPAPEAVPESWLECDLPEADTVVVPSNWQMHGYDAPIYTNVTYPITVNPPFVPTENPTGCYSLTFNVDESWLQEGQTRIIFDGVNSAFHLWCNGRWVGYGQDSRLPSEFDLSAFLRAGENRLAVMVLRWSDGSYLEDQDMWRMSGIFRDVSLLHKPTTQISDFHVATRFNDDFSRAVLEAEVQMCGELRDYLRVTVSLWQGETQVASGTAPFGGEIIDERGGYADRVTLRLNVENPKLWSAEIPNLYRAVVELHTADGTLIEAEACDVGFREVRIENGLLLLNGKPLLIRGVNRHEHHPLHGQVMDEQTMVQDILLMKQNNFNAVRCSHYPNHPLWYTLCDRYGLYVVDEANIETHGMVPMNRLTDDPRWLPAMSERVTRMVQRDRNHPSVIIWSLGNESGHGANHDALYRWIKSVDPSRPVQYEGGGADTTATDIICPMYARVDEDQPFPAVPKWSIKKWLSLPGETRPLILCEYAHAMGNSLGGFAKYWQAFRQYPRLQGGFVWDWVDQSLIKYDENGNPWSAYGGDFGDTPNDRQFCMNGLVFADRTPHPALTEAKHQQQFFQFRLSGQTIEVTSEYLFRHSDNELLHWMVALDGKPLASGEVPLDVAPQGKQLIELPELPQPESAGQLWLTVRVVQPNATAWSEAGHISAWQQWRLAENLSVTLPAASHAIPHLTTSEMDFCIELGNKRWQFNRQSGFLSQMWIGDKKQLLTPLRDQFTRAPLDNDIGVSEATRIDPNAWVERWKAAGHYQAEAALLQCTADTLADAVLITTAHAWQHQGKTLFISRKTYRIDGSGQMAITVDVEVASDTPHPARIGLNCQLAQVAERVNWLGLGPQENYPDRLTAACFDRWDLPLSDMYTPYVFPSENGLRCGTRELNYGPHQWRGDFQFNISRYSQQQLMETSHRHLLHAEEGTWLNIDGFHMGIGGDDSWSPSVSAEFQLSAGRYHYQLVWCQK

In the case of `C=CCO[C@@H]1O[C@H](CO)[C@@H](O[C@@H]2O[C@H](CO)[C@H](O)[C@H](O)[C@H]2O)C[C@H]1NC(C)=O` [Compound 2i, Allyl β-D-galactopyranosyl-(1,4)-2-acetamido-2,3-dideoxy-β-D-glucopyranoside], the inhibitory effect result in data set [1] is “did not exhibit any inhibitory effect”. In the case of `OC[C@H]1NC[C@H](O)[C@@H](O)[C@@H]1O` [Compound 3], the “inhibition of β-galactosidase” value in data set [2] is “Neither azasugar was an inhibitor”. On the same count and under the same terms, as for `C[C@H]1NC[C@H](O)[C@@H](O)[C@@H]1O` [Compound 4], the entry is “Neither azasugar was an inhibitor”. With `OC[C@H]1O[C@@H](O[C@H]2[C@H](O)C=CO[C@@H]2CO)[C@H](O)[C@@H](O)[C@H]1O` [Compound 8, P-D-Galactopyranosyl-(1,4)-D-glucal], the inhibitory effect result in data set [1] was “did not exhibit any inhibitory effect”. For the compound `OC[C@H]1NC[C@H](O)[C@@H](O)[C@@H]1O[C@@H]1O[C@H](CO)[C@H](O)[C@H](O)[C@H]1O` [Compound 10a, 6-D-Galactopyranosyl-(1,4) -deoxynojirimycin], the IC50 (commonly the midpoint of a concentration-inhibition curve) in data set [1] (Example 8) was roughly 40 mM; in data set [1] (Table 1a, 14C-GDP-fucose, pH 6.2, 37° C., IC50 extrapolated from linear fit), 40 mM. As to `C[C@H]1NC[C@H](O)[C@@H](O)[C@@H]1O` [Compound 103c, (2R)-methyl-(3R,4R,5S)-trihydroxypiperidine], the figures for the Ki in data set [3] and in data set [4] were 1.56 mM and 0.78 mM, respectively. Taken in the same sequence, the figures for `C[C@@H]1[C@@H](O)[C@H](O)[C@@H](O)CN1C` [Compound 117, (1,2R)-dimethyl-(3R,4R,5S)-trihydroxypiperidine] were 1.78 mM and 0.14 mM. On the same counts, the results for `C[C@@H]1[C@@H](O)[C@H](O)[C@@H](O)C[N@+]1(C)[O-]` [Compound 118, (1,2R)-dimethyl-(3R,4R,5S)-trihydroxypiperidine oxide] are 6.95 mM and 1.49 mM. For `CC(=O)N[C@H]1[C@H]([C@H](O)[C@H](O)CO)OC(O)(C(=O)O)C[C@@H]1O` (stereo partly drawn) [NeuAc, N-acetylneuraminic acid], the Km (as a rule, the concentration of substrate that gives half-maximal velocity) in data set [5] (read-out: Km for NeuAc) was 4 mM. Further, the turnover number (kcat) (in general, the number of substrate molecules converted per active site and unit of time at saturation) in data set [5] (substrates NeuAc and CTP) turned out to be 1.8 s⁻¹. Turning to “E. coli CMP-sialic acid synthetase (CMP-NeuAc synthetase, EC 2.7.7.43), modified (tagged) enzyme with C-terminal decapeptide tag, SEQ ID NO:3 (Escherichia coli RS218)”, in data set [6], the Km is reported as 4.8 mM and the kcat was found to be 1.9 s⁻¹. Besides, in data set [7], the Km came out at 1.99 mM. As to “E. coli CMP-sialic acid synthetase (CMP-NeuAc synthetase, EC 2.7.7.43), native enzyme (Escherichia coli RS218)”, the Km in data set [8] was 0.31 mM.
